Experimental data from patent publication US20250170156A1, “TOLL-LIKE RECEPTOR LIGANDS” (INIMMUNE CORPORATION, priority 2018, published 2025).
Counter-ions that a name gives are not always drawn.

Tests used:
[1] = tested on: hMM6 cells; assay: Induction of MIP-1β cytokine from hMM6 cells (ELISA); type: cell-based; details: Homo sapiens, 18 hours
Protocol: Induction of […] cytokine from hMM6 cells. The compounds were next tested in the established MM6 potency assay measuring MIP-1β cytokine production as an output measure of compound potency. Human monocytic cell line, Mono-Mac-6 (hMM6) was obtained from DSMZ (Brunswick, Germany). […] Treatments started at a 100 µM concentration proceeded with a 16-point, 5-fold dilution series. Supernatants were harvested and analyzed for production of MIP-1β via ELISA (R&D systems, catalog #DY271).

[2] = molecular target: T1, hTLR4 (Homo sapiens, UniProt O00206+Q9Y6Y9); assay: HEK hTLR4 NF-κB driven SEAP reporter assay (hTLR4 activation); type: cell-based; details: 18 hours
T1 construct: expressed in transfected cells; host or cells: HEK cells expressing hTLR4 and an NF-κB driven SEAP reporter
Protocol: hTLR4 activation. HEK hTLR4-expressing cells were treated with 100 μM concentration of test compound followed by a 5-fold dilution series. HEK hTLR4-expressing cells also contained an NF-κB driven SEAP reporter and were stimulated with the indicated concentration (FIG. 1A-1C) of the test compound for 18 hours followed by assessment of the cellular supernatant for SEAP by a Quantikine SEAP assay (InvivoGen). The SEAP assay was used to look at secretion of the NF-κB driven alkaline-phosphatase reporter gene in response to TLR4 activation by the compounds and results are interpreted both in terms of potency of the compounds to induce SEAP activation (i.e. potency where a lower EC50 indicates higher potency) and efficacy for receptor activation (i.e. maximal SEAP induction).

[3] = tested on: primary hPBMCs; assay: Induction of RANTES from primary hPBMCs (ELISA)
[4] = tested on: mRAW264.7 cells; assay: Induction of MIP-1β cytokine from mRAW264.7 cells (ELISA); type: cell-based; details: Mus musculus, 18 hours, read-out: mRaw MIP-1β EC50
Protocol: Induction of MIP-1β cytokine from mRAW264.7 cells. […] Treatments started at 20 μM concentration with a 5-fold serial dilution until 3.2768E-09 μM. Supernatants were harvested and analyzed for production of MIP-1β via ELISA (R& D Systems-cat #DY451).

[5] = Stability of aqueous formulations by reverse-phase-HPLC; type: physicochemical; details: 40° C.; formulated in 2.5% glycine (FIGS. 9, 12)
Protocol: Formulation. The salted compound was accurately weighed into depyrogenated glass vials, and the required volume of aqueous vehicle added to attain the desired concentration. Vials were placed in a sonication bath (sonication bath temperature≤45° C.) to assist solubility and reduce particle size to achieve sterile filtration without significant loss of compound. Once the solution appeared homogeneous, the particle size was periodically monitored by dynamic light scattering until the solution turned clear and the particle size was <200 mn, or the particle size no longer reduced with continued sonication. The formulation was filtered through a 0.22p PVDF membrane filter into a depyrogenated glass vial and the resulting solution quantitated by RP-HPLC.
Aqueous formulations of compounds 1, 2, 3, 4, 5 and 6 were aliquoted into small depyrogenated vials for stability evaluation at temperatures of 2°-8° C., 25° C., and 40° C. This mirrors ICH stability temperature guidelines, but humidity was not controlled. A vial was pulled for each time point/temperature and analyzed by reverse-phase-HPLC (FIGS. 9-14) according to the following schedule starting from 2 weeks to up to 12 months.

[6] = tested on: primary hPBMCs; assay: Induction of MIP-1β from primary hPBMCs (ELISA)
[7] = tested on: influenza virus antigen A/Victoria/210/2009-H3N2; assay: Vaccine adjuvant study, murine influenza virus vaccination model; type: in vivo, BALB/c mice; details: intramuscular, 0.1, 0.01 or 0.001 μg with 0.2 μg antigen, 14 days after single immunization, 2% glycine
Protocol: Vaccine adjuvant study. Compounds 2, 4, 5 and 7 were evaluated as vaccine adjuvant in a murine influenza virus vaccination model. 7-9 week old BALB/c mice (10 mice per group) were injected intramuscularly in a hind limb with the influenza virus antigen A/Victoria/210/2009-H3N2 (0.2 μg/mouse) with or without 0.1, 0.01 or 0.001 μg of compound 2, 4, 5 or 7 (formulated in 2% glycine). Fourteen days after a single immunization, animals were bled via the submandibular vein and serum was collected to assay for A/Victoria specific antibodies by ELISA assay (FIG. 7).

[8] = Homo sapiens, read-out: hPBMCs EC50 RANTES, Table 3a, Average of Donors 10, 5, 2
[9] = Homo sapiens, read-out: hPBMCs EC50 RANTES, Table 3a, Donor 2
[10] = Homo sapiens, read-out: hPBMCs EC50 RANTES, Table 3a, Donor 5
[11] = Homo sapiens, read-out: hPBMCs EC50 RANTES, Table 3a, Donor 10
[12] = Homo sapiens, read-out: hPBMCs EC50 RANTES, Table 4b, Average of Donors 22, 5
[13] = Homo sapiens, read-out: hPBMCs EC50 RANTES, Table 4b, Donor 5
[14] = Homo sapiens, read-out: hPBMCs EC50 RANTES, Table 4b, Donor 22
[15] = Homo sapiens, read-out: hPBMCs EC50 MIP-1β, Table 3a, Average of Donors 10, 5, 2
[16] = Homo sapiens, read-out: hPBMCs EC50 MIP-1β, Table 3a, Donor 2
[17] = Homo sapiens, read-out: hPBMCs EC50 MIP-1β, Table 3a, Donor 5
[18] = Homo sapiens, read-out: hPBMCs EC50 MIP-1β, Table 3a, Donor 10
[19] = Homo sapiens, read-out: hPBMCs EC50 MIP-1β, Table 4b, Average of Donors 22, 5
[20] = Homo sapiens, read-out: hPBMCs EC50 MIP-1β, Table 4b, Donor 5
[21] = Homo sapiens, read-out: hPBMCs EC50 MIP-1β, Table 4b, Donor 22
[22] = Homo sapiens, read-out: hPBMCs EC50 RANTES, Table 4c, one donor
[23] = Homo sapiens, 96 h, read-out: hPBMCs EC50 MIP-1β, Table 4d, one donor

T1 sequence (O00206 24-839): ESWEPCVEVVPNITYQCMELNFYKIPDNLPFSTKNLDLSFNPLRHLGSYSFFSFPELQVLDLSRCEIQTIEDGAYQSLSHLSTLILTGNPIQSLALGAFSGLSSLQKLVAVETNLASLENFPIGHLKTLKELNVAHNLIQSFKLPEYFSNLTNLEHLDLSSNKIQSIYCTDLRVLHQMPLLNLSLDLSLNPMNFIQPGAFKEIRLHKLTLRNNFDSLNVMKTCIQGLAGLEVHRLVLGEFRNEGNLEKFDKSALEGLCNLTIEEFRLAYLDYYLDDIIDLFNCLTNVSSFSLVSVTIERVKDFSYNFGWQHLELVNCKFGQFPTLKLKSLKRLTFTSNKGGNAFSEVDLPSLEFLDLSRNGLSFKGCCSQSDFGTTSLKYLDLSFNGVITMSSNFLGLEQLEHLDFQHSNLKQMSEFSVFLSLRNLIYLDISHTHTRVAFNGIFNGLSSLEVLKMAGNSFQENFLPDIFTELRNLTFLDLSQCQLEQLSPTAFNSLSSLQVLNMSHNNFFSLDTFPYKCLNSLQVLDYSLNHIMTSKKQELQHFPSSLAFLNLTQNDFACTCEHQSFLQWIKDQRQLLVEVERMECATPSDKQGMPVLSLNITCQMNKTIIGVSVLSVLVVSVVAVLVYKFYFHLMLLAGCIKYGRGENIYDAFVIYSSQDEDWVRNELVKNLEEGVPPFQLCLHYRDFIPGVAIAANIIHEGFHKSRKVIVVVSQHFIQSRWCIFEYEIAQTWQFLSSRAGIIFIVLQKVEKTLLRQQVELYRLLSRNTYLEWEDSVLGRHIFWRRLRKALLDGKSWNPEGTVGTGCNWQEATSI
T1 sequence (Q9Y6Y9 17-160 limits assumed): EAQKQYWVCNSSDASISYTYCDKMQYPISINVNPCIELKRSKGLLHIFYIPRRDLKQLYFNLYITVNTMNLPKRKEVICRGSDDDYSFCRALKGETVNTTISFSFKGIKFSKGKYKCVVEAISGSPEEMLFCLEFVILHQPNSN

| Compound | EC50 [1] | EC50 ([2]; Table 1a) | EC50 ([2]; Table 1b) | EC50 [3, 8] | EC50 [3, 9] | EC50 [3, 10] | EC50 [3, 11] | EC50 [3, 12] | EC50 [3, 13] | EC50 [3, 14] | EC50 [4] | EC50 [6, 15] | EC50 [6, 16] | EC50 [6, 17] | EC50 [6, 18] | EC50 [6, 19] | EC50 [6, 20] | EC50 [6, 21] | adjuvant effect on flu-specific IgG2a antibody titers compared to antigen alone [7] | other results |
| --- | --- | --- | --- | --- | --- | --- | --- | --- | --- | --- | --- | --- | --- | --- | --- | --- | --- | --- | --- | --- |
| CCCCCCCCCCC[C@H](CC(=O)NCCO[C@@H]1O[C@H](CO)[C@@H](OP(=O)(O)O)[C@@H](NC(=O)C[C@@H](CCCCCCCCCCC)OC(=O)CCCCCCCCC)[C@H]1NC(=O)C[C@@H](CCCCCCCCCCC)OC(=O)CCCCCCCCC)OC(=O)CCCCCCCCC [Compound 1, 2-[(R)-3-decanoyloxytetradecanoylamino]ethyl 2,3-di-[(R)-3-decanoyloxytetradecanoylamino]-2,3-dideoxy-4-O-phosphono-β-D-allopyranoside] | 0.251 nM | 13.7 nM | 19.7 nM | 0.0205 nM | 0.0121 nM | 0.0254 nM | 0.0239 nM | 0.135 nM | 0.0899 nM | 0.179 nM | 0.0576 nM | 0.0214 nM | 0.0198 nM | 0.0241 nM | 0.0202 nM | 0.18 nM | 0.0761 nM | 0.285 nM | – | time with no degradation [5]: 6 weeks |
| CCCCCCCCCCC[C@H](CC(=O)N[C@H]1[C@H](OC[C@H](NC(=O)C[C@@H](CCCCCCCCCCC)OC(=O)CCCCCCCCC)C(=O)OC)O[C@H](CO)[C@@H](OP(=O)(O)O)[C@H]1NC(=O)C[C@@H](CCCCCCCCCCC)OC(=O)CCCCCCCCC)OC(=O)CCCCCCCCC [Compound 3, N—[(R)-3-Decanoyloxytetradecanoyl]-O-[2,3-di-[(R)-3-decanoyloxytetradecanoylamino]-2,3-dideoxy-4-O-phosphono-β-D-allopyranosyl]-L-serine methyl ester] | 0.462 nM | 3.95 nM | – | 0.0719 nM | 0.0158 nM | 0.158 nM | 0.0417 nM | – | – | – | 0.0112 nM | 0.0478 nM | 0.0314 nM | 0.0727 nM | 0.0394 nM | – | – | – | – | – |
| CCCCCCCCCCC[C@H](CC(=O)NC1C(NC(=O)C[C@@H](CCCCCCCCCCC)OCCCCCCCCCC)[C@H](OP(=O)(O)O)C(CO)O[C@H]1OC[C@H](NC(=O)C[C@@H](CCCCCCCCCCC)OCCCCCCCCCC)C(=O)O)OCCCCCCCCCC (stereo partly drawn) [Compound 4] | 0.124 nM | 1.32 nM | 1.39 nM | 0.0083 nM | 0.0083 nM | 0.0081 nM | 0.0084 nM | 0.0185 nM | 0.0149 nM | 0.0221 nM | 0.0014 nM | 0.0049 nM | 0.0059 nM | 0.0027 nM | 0.0062 nM | 0.0137 nM | 0.0141 nM | 0.0133 nM | dose dependent adjuvant effect | – |
| CCCCCCCCCCC[C@H](CC(=O)NC1[C@H](OC[C@H](NC(=O)C[C@@H](CCCCCCCCCCC)OCCCCCCCCCC)C(=O)O)OC(CO)[C@@H](OS(=O)(=O)O)[C@@H]1NC(=O)C[C@@H](CCCCCCCCCCC)OCCCCCCCCCC)OCCCCCCCCCC (stereo partly drawn) [Compound 5, N—[(R)-3-Decyloxytetradecanoyl]-O-[2,3-di-[(R)-3-decyloxytetradecanoylamino]-2,3-dideoxy-4-O-sulfoxy-β-D-allopyranosyl]-L-serine] | – | – | 2.9 nM | – | – | – | – | 0.0238 nM | 0.0156 nM | 0.0319 nM | – | – | – | – | – | 0.027 nM | 0.0151 nM | 0.039 nM | dose dependent adjuvant effect | – |
| CCCCCCCCCCC[C@H](CC(=O)NCCO[C@@H]1OC(CO)[C@@H](OCP(=O)(O)O)[C@H](NC(=O)C[C@@H](CCCCCCCCCCC)OC(=O)CCCCCCCCC)C1NC(=O)C[C@@H](CCCCCCCCCCC)OC(=O)CCCCCCCCC)OC(=O)CCCCCCCCC (stereo partly drawn) [Compound 6] | – | – | 10.2 nM | – | – | – | – | 0.174 nM | 0.238 nM | 0.109 nM | – | – | – | – | – | 0.0791 nM | 0.036 nM | 0.122 nM | – | – |
| CCCCCCCCCCC[C@H](CC(=O)NCCO[C@@H]1OC(CO)[C@@H](OP(=O)(O)O)C(NC(=O)C[C@@H](CCCCCCCCCCC)OC(=O)CCCCCCCc2ccccc2)C1NC(=O)C[C@@H](CCCCCCCCCCC)OC(=O)CCCCCCCc1ccccc1)OC(=O)CCCCCCCc1ccccc1 (stereo partly drawn) [Compound 8, 2-[(R)-3-(8-phenyl)octanoyloxytetradecanoylamino]ethyl 2,3-di-[(R)-3-(8-phenyl)octanoyloxytetradecanoylamino]-2,3-dideoxy-4-O-phosphono-β-D-allopyranoside triethylammonium Salt] | – | – | 4.99 nM | – | – | – | – | – | – | – | – | – | – | – | – | – | – | – | – | EC50 [3, 22]: 0.0391 nM; EC50 [6, 23]: 0.0418 nM |
| CCCCCCCCCCC[C@H](CC(=O)NCCO[C@@H]1OC(CO)[C@@H](OP(=O)(O)O)C(NC(=O)C[C@@H](CCCCCCCCCCC)OC(=O)CCCCCCCc2ccccc2)C1NC(=O)C[C@@H](CCCCCCCCCCC)OC(=O)CCCCCCCCC)OC(=O)CCCCCCCCC (stereo partly drawn) [Compound 9, 2-[(R)-3-decanoyloxytetradecanoylamino]ethyl, 2-[(R)-3-decanoyloxytetradecanoylamino]-3-[(R)-3-(8-phenyl)octanoyloxytetradecanoylamino]-2,3-dideoxy-4-O-phosphono-β-D-allopyranoside triethylammonium salt] | – | – | 15.7 nM | – | – | – | – | – | – | – | – | – | – | – | – | – | – | – | – | EC50 [3, 22]: 0.143 nM; EC50 [6, 23]: 0.182 nM |
| N—[(R)-3-Decyloxytetradecanoyl]-O-[2,3-di-[(R)-3-decyloxytetradecanoylamino]-2,3-dideoxy-4-O-methylphosphono-β-D-allopyranosyl]-L-serine triethylammonium salt [Compound 7] | – | – | 0.78 nM | – | – | – | – | – | – | – | – | – | – | – | – | – | – | – | dose dependent adjuvant effect | EC50 ([3]; read-out: hPBMCs EC50 RANTES, Table 4b, Average of Donors 22, 5): 0.006 nM; EC50 ([3]; read-out: hPBMCs EC50 RANTES, Table 4b, Donor 5): 0.0041 nM; EC50 ([3]; read-out: hPBMCs EC50 RANTES, Table 4b, Donor 22): 0.008 nM; EC50 ([6]; read-out: hPBMCs EC50 MIP-1β, Table 4b, Average of Donors 22, 5): 0.0083 nM; EC50 ([6]; read-out: hPBMCs EC50 MIP-1β, Table 4b, Donor 5): 0.0033 nM; EC50 ([6]; read-out: hPBMCs EC50 MIP-1β, Table 4b, Donor 22): 0.0133 nM |
